Measured values reported in patent US4208514A, “4(3H)-Oxobenzo-2,1,3-thiadiazine-2,2-dioxides” (The Dow Chemical Company, priority 1976, dated 1980).

Columns and labels:
Type in all cases: in vivo
Velvet Leaf [1] = test: Selective post-emergent greenhouse test, Velvet Leaf; conditions: post-emergence, 336 h, 2 weeks; for pest or weed control at 358.672 g/ha: 0.32 lbs/acre; for pest or weed control at 706.135 g/ha: 0.63 lbs/acre
From the text: (§1) So as to illustrate clearly the phytotoxic properties of the various active ingredients of the present invention, a group of controlled greenhouse experiments is described below.
(§2) Various species of plants, both broadleaf weeds and valuable crops, were planted in beds of good agricultural soil in a greenhouse. After the plants had emerged and grown to a height of about 2-6 inches, a portion of the plants were sprayed with an aqueous mixture, made by mixing a selected active ingredient and emulsifier or dispersant with water to provide solution containing 250 or 125 ppm active ingredient, employing sufficient amounts of the treating composition to provide low post emergent application rates of about 0.63 or 0.32 pounds per acre. Other portions of the plants were left untreated to serve as controls. In each test the active ingredient was a 3-methylethyl-1H-2,1,3-benzothiadiazin-4(3H)-one-2,2-dioxide having a substituent in the one position according to the invention.
(§3) After a period of 2 weeks the selective effect of the test ingredient on the plants was evaluated by a comparison with the control group of plants.

Jimson Weed = test: Selective post-emergent greenhouse test, Jimson Weed; conditions: post-emergence, 336 h, 2 weeks; for pest or weed control at 358.672 g/ha: 0.32 lbs/acre; for pest or weed control at 706.135 g/ha: 0.63 lbs/acre
From the text: as §1, §2, §3

Cotton = test: Selective post-emergent greenhouse test, Cotton (crop injury); conditions: Gossypium hirsutum, post-emergence, 336 h, post-emergent, 2 weeks, crop, read-out: % Control Cotton; for plant injury at 358.672 g/ha: 0.32 lbs/acre; for plant injury at 706.135 g/ha: 0.63 lbs/acre
From the text: as §1, §2, §3

Soybean = test: Selective post-emergent greenhouse test, Soybean (crop injury); conditions: Glycine max, post-emergence, 336 h, 2 weeks, read-out: % Control Soybean; for plant injury at 358.672 g/ha: 0.32 lbs/acre; for plant injury at 706.135 g/ha: 0.63 lbs/acre
From the text: as §1, §2, §3

Nutsedge = test: General post-emergent herbicidal activity at 10 lbs/acre, Nutsedge; conditions: Cyperus, post-emergence, 336 h
From the text: as §2, with “[…], […]” for “emulsifier or dispersant with water to provide solution containing 250 or 125 ppm active ingredient, employing sufficient amounts of the treating composition to provide low post emergent application rates of about 0.63 or 0.32 pounds per acre.”
as §3

Annual Morning Glory = test: General post-emergent herbicidal activity at 10 lbs/acre, Annual Morning Glory; conditions: Ipomoea, post-emergence, 336 h
From the text: as §2, with “[…], […]” for “emulsifier or dispersant with water to provide solution containing 250 or 125 ppm active ingredient, employing sufficient amounts of the treating composition to provide low post emergent application rates of about 0.63 or 0.32 pounds per acre.”
as §3

Velvet Leaf [2] = test: General post-emergent herbicidal activity at 10 lbs/acre, Velvet Leaf; conditions: post-emergence, 336 h
From the text: as §2, with “[…], […]” for “emulsifier or dispersant with water to provide solution containing 250 or 125 ppm active ingredient, employing sufficient amounts of the treating composition to provide low post emergent application rates of about 0.63 or 0.32 pounds per acre.”
as §3

SMILES | pest or weed control at 358.672 g/ha (Velvet Leaf [1]) [%] | pest or weed control at 706.135 g/ha (Velvet Leaf [1]) [%] | pest or weed control at 358.672 g/ha (Jimson Weed) [%] | pest or weed control at 706.135 g/ha (Jimson Weed) [%] | plant injury at 358.672 g/ha (Cotton) [%] | plant injury at 706.135 g/ha (Cotton) [%] | plant injury at 358.672 g/ha (Soybean) [%] | plant injury at 706.135 g/ha (Soybean) [%] | pest or weed control at 11208.5 g/ha (Nutsedge) [%] | pest or weed control at 11208.5 g/ha (Annual Morning Glory) [%] | pest or weed control at 11208.5 g/ha (Velvet Leaf [2]) [%]
CC(C)N1C(=O)c2ccccc2N(C(=O)C2CCCCC2)S1(=O)=O | 0 | 100 | 100 | 100 | 0 | 100 | 0 | 0 | – | – | –
CC(C)N1C(=O)c2ccccc2N(C(=O)N(C)C)S1(=O)=O [CON(CH3)2, 1H-2,1,3-Benzothiadiazine-1-carboxamide: N,N-Dimethyl-3,4-dihydro-3-(1-methylethyl)-4-oxo-, 2,2-dioxide] | 40 | 95 | 100 | 100 | – | 40 | 0 | 0 | – | – | –
CC(C)N1C(=O)c2ccccc2N(S(=O)(=O)c2ccccc2)S1(=O)=O | 0 | 30 | 100 | 100 | 0 | 0 | 0 | 0 | – | – | –
CCC(=O)N1c2ccccc2C(=O)N(C(C)C)S1(=O)=O [COC2 H5, 1H-2,1,3-Benzothiadiazin-4(3H)-one: 3-(1-methylethyl)-1-(1-oxopropyl)-; 2,2-dioxide] | 100 | 100 | – | – | 0 | 100 | 0 | 0 | – | – | –
COC(=O)CCC(=O)N1c2ccccc2C(=O)N(C(C)C)S1(=O)=O [drawing 13] | 70 | 100 | 100 | 100 | 0 | 60 | 0 | 0 | – | – | –
CC(C)C(=O)N1c2ccccc2C(=O)N(C(C)C)S1(=O)=O [COCH(CH3)2, 1H-2,1,3-Benzothiadiazin-4 (3H)-one:3-(1-methylethyl)-1-(2- -methyl-1-oxopropyl)-2,2-dioxide] | – | – | – | – | – | – | – | – | 95 | 100 | 100
CC(C)N1C(=O)c2ccccc2N(C(=O)C(C)(C)C)S1(=O)=O [COC(CH3)3, 3-(1-Methylethyl)-1-(2,2-dimethyl-1-oxopropyl)-1H-2,1,3- -benzothiadiazin-4(3H)-one-2,2-dioxide] | 80 | 100 | 70 | 100 | 0 | 40 | 0 | 0 | – | – | –
COC(=O)CCC(=O)N1c2ccccc2C(=O)N(C(C)C)S1(=O)=O [COCH2 CH2 CO2 CH3, 1H-2,1,3-Benzothiadiazin-1-butanoic acid; γ,4-Dioxo-3-(1-methylethyl)-3,4-dihydro-, methyl ester; 2,2-dioxide] | – | – | – | – | – | – | – | – | 95 | 100 | 100
CCCCCCCCCCCC(=O)N1c2ccccc2C(=O)N(C(C)C)S1(=O)=O [CO(CH2)10 CH3, 3-(1-Methylethyl)-1-(1-oxododecanyl)-1H-2,1,3-benzothiadiazin-4 (3H)-one-2,2-dioxide] | 60 | 70 | 100 | 100 | 0 | 20 | 0 | 0 | – | – | –
CC(C)N1C(=O)c2ccccc2N(C(=O)CC(C)(C)C)S1(=O)=O [COCH2 C(CH3)3, 1H-2,1,3-Benzothiadiazin-4(3H)-one: 1-(3,3-dimethyl-1-oxobutyl)-3-(1-methylethyl)-; 2,2-dioxide] | 100 | 100 | 90 | 100 | 0 | 0 | 0 | 0 | – | – | –
